± gives the expanded uncertainty stated by the source. Values belong to the compound of their own block, whether it stands above or below them.
Tests used:
[1] = Liquid; for mass density: 101.33 kPa
[2] = refractive index (Na D-line) (dimensionless); details: 101.33 kPa, Liquid, Standard Abbe refractometry

Structure (SMILES): CC(Cl)(Cl)Cl [1,1,1-trichloroethane]
mass density ([1]; 298.15 K): 1330 ± 5 kg/m3
vapor or sublimation pressure ([1]; 345.25 K): 94.6 ± 0.3 kPa
vapor or sublimation pressure ([1]; 345.35 K): 94.6 ± 0.2 kPa
vapor or sublimation pressure ([1]; 345.65 K): 95.8 ± 0.3 kPa
refractive index ([2]; 298.15 K): 1.436 ± 0.0007

Structure (SMILES): ClC(Cl)C(Cl)Cl [1,1,2,2-tetrachloroethane]
mass density ([1]; 298.15 K): 1587 ± 5 kg/m3
vapor or sublimation pressure ([1]; 416.95 K): 94.6 ± 0.2 kPa
vapor or sublimation pressure ([1]; 417.35 K): 95.8 ± 0.2 kPa
refractive index ([2]; 298.15 K): 1.494 ± 0.0007

mass density ([1]; 298.15 K): 1247 ± 5 kg/m3
vapor or sublimation pressure ([1]; 354.95 K): 94.6 ± 0.3 kPa
vapor or sublimation pressure ([1]; 355.05 K): 94.6 ± 0.3 kPa
vapor or sublimation pressure ([1]; 355.25 K): 95.8 ± 0.3 kPa
refractive index ([2]; 298.15 K): 1.4421 ± 0.0007
Structure (SMILES): ClCCCl [1,2-dichloroethane]

Structure (SMILES): Clc1ccccc1 [chlorobenzene]
mass density ([1]; 293.15 K): 1106 ± 5 kg/m3
vapor or sublimation pressure ([1]; 402.55 K): 94.6 ± 0.3 kPa
refractive index ([2]; 293.15 K): 1.5248 ± 0.0007

mass density ([1]; 298.15 K): 679.5 ± 5 kg/m3
vapor or sublimation pressure ([1]; 369.75 K): 95.8 ± 0.3 kPa
vapor or sublimation pressure ([1]; 369.78 K): 95.8 ± 0.3 kPa
refractive index ([2]; 298.15 K): 1.3851 ± 0.0007
Structure (SMILES): CCCCCCC [heptane]

Structure (SMILES): O=[N+]([O-])c1ccccc1 [nitrobenzene]
mass density ([1]; 298.15 K): 1198 ± 5 kg/m3
vapor or sublimation pressure ([1]; 481.15 K): 94.6 ± 0.3 kPa
refractive index ([2]; 298.15 K): 1.55 ± 0.001

Structure (SMILES): ClC(Cl)=C(Cl)Cl [tetrachloroethene]
mass density ([1]; 298.15 K): 1615 ± 5 kg/m3
vapor or sublimation pressure ([1]; 391.25 K): 94.6 ± 0.2 kPa
vapor or sublimation pressure ([1]; 391.65 K): 95.8 ± 0.2 kPa
refractive index ([2]; 298.15 K): 1.505 ± 0.0007

Structure (SMILES): ClC=C(Cl)Cl [trichloroethene]
mass density ([1]; 298.15 K): 1464 ± 5 kg/m3
vapor or sublimation pressure ([1]; 358.25 K): 94.6 ± 0.3 kPa
vapor or sublimation pressure ([1]; 358.55 K): 95.8 ± 0.3 kPa
refractive index ([2]; 298.15 K): 1.4782 ± 0.0007

Source: the NIST ThermoML archive (doi:10.1021/je0301085)
